Marks after values point to notes of the source that are not given here.
Assay: Pharmacokinetic study after single dose in C57BL/6N mice
Format: in vivo, mouse
Protocol: Pharmacokinetic study of MI-883 in C57BL/6N mice (9–10 weeks old, body weight 20.8 to 24.5 g and average body weight across all groups 22.7 g, SD = 1.1 g) were performed following peroral (p.o.) and intraperitoneal (i.p.) administrations. […] There was also a control group of 4 animals per route. The levels of the parent compound MI-883 were determined by LC-MS/MS in the blood plasma, brain, kidney, liver, muscle (Leg triceps), bile, small intestine, colon, and adipose tissues over time after a single dose of 10 mg/kg. Mice were injected i.p. with 2,2,2-tribromoethanol at a dose of 150 mg/kg prior to drawing the blood. Blood collection was performed from the orbital sinus in BD microtainers tubes containing K2EDTA. Animals were sacrificed by cervical dislocation after the blood samples collection. After this, samples of brain, kidney, liver, muscle (Leg triceps), small intestine, colon, and adipose tissue were collected. Bile samples were taken from the gallbladder of mice. Urine and feces samples were collected using metabolic cages over the course of 1440 min (24 h) after compound administration. All samples were immediately processed, flash-frozen, and stored at –70 °C until subsequent analysis. Detection of the presence of potential metabolites (2-chloro-5-((4-(2-(4-chlorophenyl)-7-fluoroimidazo[1,2-a]pyridin-3-yl)-1H-1,2,3-triazol-1-yl)methyl)-N-methylbenzamide or 2-(4-chlorophenyl)-7-fluoro-3-(1H-1,2,3-triazol-4-yl)imidazo[1,2-a]pyridine) in plasma and tissues was performed. MI-883 was applied in 5%DMSO – 5%PEG300 – 90%corn oil formulation with a final concentration of the compound, 2 mg/ml. Animal treatment and sample preparation were conducted by the Animal Laboratory personnel at Enamine/Bienta.
Plasma samples (50 μl) were mixed with 200 μl of IS400 solution. After mixing by pipetting and centrifuging for 4 min at 6000 rpm, 2 μl of each supernatant was injected into the LC-MS/MS system. Solution of compound IS-19851 (400 ng/ml in acetonitrile-methanol mixture 1:1, v/v) was used as internal standard (IS400) for quantification of MI-883 in blood plasma, liver, kidney, muscle (Leg triceps), small intestine, and colon samples. Liver, kidney, muscle (Leg triceps), colon, and small intestine samples (weight 100 mg ±1 mg) were disintegrated in 500 μl of IS400 using zirconium oxide beads (120 mg ± 5 mg) in The Bullet Blender® homogenizer for 1–3 min at speed 8–12. After this, the samples were centrifuged for 3 min at 14,000 rpm, and 1 μl of each supernatant was injected into the LC-MS/MS system.
Brain and adipose tissue samples (weight 100 mg ± 1 mg) were dispersed in 500 μl of IS400(80) using zirconium oxide beads (120 mg ± 5 mg) in The Bullet Blender® homogenizer for 30 s at speed 8. After this, the samples were centrifuged for 4 min at 14,000 rpm, and 1 μl of each supernatant was injected into the LC-MS/MS system. Solution of compound IS-19851 (400 ng/ml in water-acetonitrile-methanol mixture, 2:4:4, v/v/v) was used as internal standard (IS400(80)) for quantification of MI-883 in the brain, adipose tissue, urine, and bile samples. Urine (cumulative) and bile samples were mixed with IS400(80) solution (1:20, v/v). After mixing by pipetting and centrifuging for 4 min at 6000 rpm, 0.5 μl of each supernatant was injected into the LC-MS/MS system. Cumulative feces samples (114 mg–249 mg) were transferred to BMT-20-S tubes with 4 stainless steel balls, mixed with 20 volumes of IS400(80) solution, and dispersed using ULTRA-TURRAX Tube Drive for 1 min at 3000 rpm within the 30 min thrice. After dispersing and centrifuging for 2 min at 14,000 rpm, 0.5 μl of each supernatant was injected into the LC-MS/MS system.
The concentration of MI-883 in plasma and tissues was determined using a high-performance liquid chromatography/tandem mass spectrometry (HPLC-MS/MS) method. […]

[1] = male, C57BL/6N, mouse, ip, Liver, 10 mg/kg

In the case of `NC(=O)c1cc(Cn2cc(-c3c(-c4ccc(Cl)cc4)nc4cc(F)ccn34)nn2)ccc1Cl` [MI-883, 2-chloro-5-((4-(2-(4-chlorophenyl)-7-fluoroimidazo[1,2-a]pyridin-3-yl)-1H-1,2,3-triazol-1-yl)methyl)benzamide], the “expected metabolites (N-methyl, N-dimethyl benzamide, triazolyl-imidazopyridine) in plasma and tissues” value (10 mg/kg p.o. and i.p.) is reported as “No expected metabolites”, the route of excretion (10 mg/kg, C57BL/6N mice) is reported as “excreted mainly via bile” and the tissue distribution (10 mg/kg, C57BL/6N mice) is reported as “significantly distributed into the liver, but not the brain”. For the same molecule, the “Peroral bioavailability (%, p.o. vs. i.p.)” value (estimation based on comparison of AUCs after p.o. and i.p. application, 10 mg/kg) was 98.6* %, the “PK of MI-883: MI-883 i.p. adipose tis.” value (i.p., time 10) was 2064 and the “PK of MI-883: MI-883 i.p. adipose tis.” value (i.p., time 120) was 2083. The “PK of MI-883: MI-883 i.p. adipose tis.” value (i.p., time 240) was 2267, the “PK of MI-883: MI-883 i.p. adipose tis.” value (i.p., time 480) was 1643 and the “PK of MI-883: MI-883 i.p. adipose tis.” value (i.p., time 720) was 651. For the same molecule, the “PK of MI-883: MI-883 i.p. bile” value (i.p., time 10) was 347, the “PK of MI-883: MI-883 i.p. bile” value (i.p., time 120) was 5663 and the “PK of MI-883: MI-883 i.p. bile” value (i.p., time 240) was 6712. For the same molecule, the “PK of MI-883: MI-883 i.p. bile” value (i.p., time 480) was 17332, the “PK of MI-883: MI-883 i.p. bile” value (i.p., time 720) was 20058 and the “PK of MI-883: MI-883 i.p. brain” value (i.p., time 10) was 20. For the same molecule, the “PK of MI-883: MI-883 i.p. brain” value (i.p., time 120) was 88, the “PK of MI-883: MI-883 i.p. brain” value (i.p., time 240) was 86 and the “PK of MI-883: MI-883 i.p. brain” value (i.p., time 480) was 62. For the same molecule, the “PK of MI-883: MI-883 i.p. brain” value (i.p., time 720) was 33, the “PK of MI-883: MI-883 i.p. colon” value (i.p., time 10) was 7473 and the “PK of MI-883: MI-883 i.p. colon” value (i.p., time 120) was 3182. For the same molecule, the “PK of MI-883: MI-883 i.p. colon” value (i.p., time 240) was 3492, the “PK of MI-883: MI-883 i.p. colon” value (i.p., time 480) was 1531 and the “PK of MI-883: MI-883 i.p. colon” value (i.p., time 720) was 1717. The “PK of MI-883: MI-883 i.p. feces” value (i.p., feces, time 1440) was 689 ng, the “PK of MI-883: MI-883 i.p. kidney” value (i.p., time 10) was 1650 and the “PK of MI-883: MI-883 i.p. kidney” value (i.p., time 120) was 4299. The “PK of MI-883: MI-883 i.p. kidney” value (i.p., time 240) was 6585, the “PK of MI-883: MI-883 i.p. kidney” value (i.p., time 480) was 3365 and the “PK of MI-883: MI-883 i.p. kidney” value (i.p., time 720) was 1611. The “PK of MI-883: MI-883 i.p. kidney” value (i.p., time 1440) was 11, the “PK of MI-883: MI-883 i.p. liver” value (i.p., time 10) was 9584 and the “PK of MI-883: MI-883 i.p. liver” value (i.p., time 120) was 14064. The “PK of MI-883: MI-883 i.p. liver” value (i.p., time 240) was 10374, the “PK of MI-883: MI-883 i.p. liver” value (i.p., time 480) was 6478 and the “PK of MI-883: MI-883 i.p. liver” value (i.p., time 720) was 4261. The “PK of MI-883: MI-883 i.p. liver” value (i.p., time 1440) was 24, the “PK of MI-883: MI-883 i.p. muscule” value (i.p., time 10) was 114 and the “PK of MI-883: MI-883 i.p. muscule” value (i.p., time 120) was 913. For the same molecule, the “PK of MI-883: MI-883 i.p. muscule” value (i.p., time 240) was 720, the “PK of MI-883: MI-883 i.p. muscule” value (i.p., time 480) was 687 and the “PK of MI-883: MI-883 i.p. muscule” value (i.p., time 720) was 320. The “PK of MI-883: MI-883 i.p. small intestine” value (i.p., time 10) was 10141, the “PK of MI-883: MI-883 i.p. small intestine” value (i.p., time 120) was 7374 and the “PK of MI-883: MI-883 i.p. small intestine” value (i.p., time 240) was 4886. The “PK of MI-883: MI-883 i.p. small intestine” value (i.p., time 480) was 1858, the “PK of MI-883: MI-883 i.p. small intestine” value (i.p., time 720) was 873 and the “PK of MI-883: MI-883 i.p” value (i.p., time 10) was 565. For the same molecule, the “PK of MI-883: MI-883 i.p” value (i.p., time 120) was 5532, the “PK of MI-883: MI-883 i.p” value (i.p., time 240) was 3130 and the “PK of MI-883: MI-883 i.p” value (i.p., time 480) was 2314. The “PK of MI-883: MI-883 i.p” value (i.p., time 720) was 1008, the “PK of MI-883: MI-883 i.p” value (i.p., time 1440) was 1 and the Cmax [1] was 14100 ng/mL. For the same molecule, the Tmax [1] was 0.5 h, the half-life [1] was 2.53 h and the Cmax (male, C57BL/6N, mouse, ip, Plasma, 10 mg/kg) was 5530 ng/mL. It also gave a Vd (male, C57BL/6N, mouse, plasma, 10 mg/kg, calculated from data after a single dose application, read-out: volume of distribution (Vd) in mice) of 0.06 L and a Cmax (male, C57BL/6N, mouse, po, Liver, 10 mg/kg) of 14900 ng/mL.
